Results as given in patent US9642922B2, “Caspase-triggered nano-aggregation probes and methods of use” (The Board of Trustees of the Leland Stanford Junior …, priority 2013, dated 2017).
Marks after values point to notes of the source that are not given here.

How the values were obtained:
[1] = TEM of nano-aggregates after incubation with caspase-3; type: physicochemical; conditions: after caspase-3 incubation
Method: FIG. 7C is a digital TEM image of nano-aggregates after incubation C-SNAF (50 μM) with recombinant human caspase-3 (4.9×10^−3 U/mL) overnight at 37° C. in caspase-3 buffer; scale bar, 1 μm.
No nano-aggregation was found in either of the control probe solutions after incubation with caspase-3.

HeLa tumor xenograft = test: PET imaging of HeLa tumor xenograft-bearing nude mice; type: in vivo, mouse; conditions: for uptake ratio between tumor and muscle (T/M): treated tumors
Method: One group of animals was scanned at baseline (before treatment) and 4 days post treatment with 0.2 mg doxorubicin injected into the tumor. On the day of scanning, the animals were moved from their housing area to the PET scanner around 1 h prior to the experiment. They were constrained shortly in a tail veiner and injected intravenously, with 440±97 μCi (16±3 MBq) [^18F]C-SNAT formulation. They were anesthetized with 2% isoflurane shortly before placement in an R4 microPET scanner (Siemens Medical Solutions, USA). The anesthesia were continued with 2% isoflurane doing 5 min of acquisition. Scans using the control tracer 1-D (173±73 μCi/9±4 Mbq in 200 μL formulation) were carried out in a similar manner using two groups (one baseline and one treated) instead of the same animals at baseline and after treatment. The images were reconstructed using a standard 2D reconstruction without attenuation correction.
The reconstructed images were analyzed by making two volumes of interest (VOI), one on the tumor and one located on the left shoulder corresponding to muscle/bone mixture. The percent of injected dose per gram tissue (% ID/g) was calculated in each VOI and the ratio between tumor and muscle uptake was calculated based on this uptake (uptake in tumor/uptake in muscle region). The effect of treatment was calculated as the difference in uptake of [^18F]C-SNAT at baseline and after treatment.
Evaluation of activatable PET tracer 1 and control tracer 1-D for PET imaging of caspase-3 activity in vivo was performed in HeLa tumor xenograft-bearing nude mice. Tumors were implanted and grown for a minimum of 10 d before receiving intratumoral injection of 0.2 mg DOX (20 μL). 1 or 1-D (5-15 MBq/135-405 μCi) was injected through the tail vein for PET imaging 4 d post treatment. Static PET scans (5 min) were performed 65, 125 and 182 mins post tracer injection.

[2] = Ex vivo biodistribution of [18F]C-SNAT; type: in vivo, mouse; conditions: for Ratio of % ID/g over muscle ± SEM: 2 h post injection
Method: Mice were administered [^18F]C-SNAT (100-200 μCi/3.7-7.4 MBq in 100-200 μL of 0.9% saline solution) via tail vein injection and then euthanized by bilateral thoracotomy under anesthesia at 2 h after injection of tracer (n=3). All samples (tumor, heart, whole brain, gallbladder, kidney, liver, lung, muscle, bone, spleen, whole blood) were removed quickly following euthanasia and placed in pre-weighed test tubes. Standard solutions of the tracer were prepared by diluting approximately 100 μCi (3.7 MBq) tracer in 100 mL of water, of which 1 mL of aliquots were used for reference counting.
The test tubes containing tissue samples were weighed and the radioactivity was measured by an automated gamma counter (Cobra Model 5002, Packard, USA) along with the standard solutions.

apoptotic HeLa cells = test: Cell uptake of tracer 1 in HeLa cells; type: cell-based, human
Method: HeLa cells (cultured in DMEM with 10% FBS and 1% ampicillin) were grown in a 6 well plate culture dish for 24 h. The wells were then divided into 3 groups. Group 1 wells were cultured normally for 24 h, then the medium was changed and the cells were cultured for another 24 h. Group 2 and 3 wells were cultured with 2 μM doxorubicin (DOX) for 24 h, then the medium was changed and the cells were cultured for another 24 h, group 2 in normal culture medium without doxorubicin and group 3 in normal culture medium without doxorubicin but together with 50 μM Z-VAD-FMK, a caspase-3 inhibitor.
After 48 h, 10 μCi (0.37 MBq) of 1 were added to all three groups and incubated for additional 4 h. Then the medium was removed, the cells washed 3 times with phosphate buffered saline, and 1 mL of Tryp-LETM Express was added and the cells were left for 1-2 min to allow to detach. The cell/Tryp-LE solution was counted in a gamma counter and the radioactivity was normalized to the protein concentration (determined by comparison with BSA standards in each vial.

[3] = Stability of PET tracers in mouse serum; type: in vitro ADME; conditions: 1 h incubation, 37° C.
Method: To the mouse serum (500 μL) 100 μL (approximately 100 μCi/3.7 MBq) of radioactive sample was added and the mixture was incubated at 37° C. At each time point, 100 μL of sample was taken and after mixing with 100 μL of acetonitrile was centrifuged at 9,400×g for 5 min. The resulting supernatants were collected, and an aliquot of each supernatant (100 μL) was diluted with 100 μL of water and analyzed via the same HPLC method used for quality control (fitted with a highly sensitive positron detector for radioactivity). The percent ratio of intact compound to the total radioactivity on the HPLC chromatogram was calculated as %=[(peak area for intact compound)/(total peak area)]×100.

caspase-3 = molecular target: T1, caspase-3 (Homo sapiens, UniProt P42574); test: Incubation of PET tracer with recombinant caspase-3, radio-HPLC; type: biochemical; conditions: within 1 h, in buffer
T1 sequence (P42574 29-175 limits assumed): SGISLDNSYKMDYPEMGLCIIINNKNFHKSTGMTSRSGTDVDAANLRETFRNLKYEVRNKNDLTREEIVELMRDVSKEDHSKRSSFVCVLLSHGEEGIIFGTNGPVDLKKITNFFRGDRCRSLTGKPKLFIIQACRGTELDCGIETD
T1 sequence (P42574 176-277 limits assumed): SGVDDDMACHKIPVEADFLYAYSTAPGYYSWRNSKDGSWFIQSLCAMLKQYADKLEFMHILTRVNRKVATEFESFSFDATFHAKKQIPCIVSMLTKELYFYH
Method: To evaluate the activatable PET tracer 1 for caspase-3 detection, it was first incubated with recombinant caspase-3 in buffer.

Membrane Potential = conditions: cited from earlier work

Compound: CC[N+]1=C(C=CC=CC=C2N(CCCCCC(=O)NCCCCC3NC(=O)C4CSC(=N4)c4ccc5cc(ccc5n4)OCCCNC(=O)C4CSC(=N4)c4nc5ccc(cc5s4)NC3=O)c3ccc4c(S(=O)(=O)O)cc(S(=O)(=O)O)cc4c3C2(C)C)C(C)(C)c2c1ccc1c(S(=O)(=O)[O-])cc(S(=O)(=O)O)cc21 (stereo not shown) [C-SNAF-cycl]
- average diameter of nano-aggregates (TEM) [1]: 174±44 nm

Compound: CCSSCC(NC(=O)[C@H](CC(=O)O)NC(=O)[C@@H](NC(=O)[C@H](CCC(=O)O)NC(=O)[C@H](CC(=O)O)NC(C)=O)C(C)C)C(=O)NC(Cc1cn(CCOCC[18F])nn1)C(=O)Nc1ccc2nc(C3=N[C@@H](C(=O)NCCCOc4ccc5nc(C#N)ccc5c4)CS3)sc2c1 (stereo partly shown) [[^18F]C-SNAT]
- uptake difference between baseline and treated (HeLa tumor xenograft; 65 min): 0.36±0.15 % ID/g
- uptake difference between baseline and treated (HeLa tumor xenograft; 182 min): 0.63±0.11 % ID/g
- uptake in tumor (HeLa tumor xenograft; DOX treated, 65 min): 1.17±0.17 % ID/g
- uptake in tumor (HeLa tumor xenograft; DOX treated, 182 min): 1.29±0.07 % ID/g
- uptake in tumor (HeLa tumor xenograft; baseline, 65 min): 0.81±0.28 % ID/g
- uptake in tumor (HeLa tumor xenograft; baseline, 182 min): 0.67±0.24 % ID/g
- Target/Background (HeLa tumor xenograft; maximum value at the apoptotic tissue): 7.0
- time course of uptake in apoptotic tumors (HeLa tumor xenograft; mouse, in vivo): trend of increasing uptake over times
- % ID/g at target site (HeLa tumor xenograft; mouse, tumor treatment, PET imaging): 1.3 ± 0.1 % ID/g
- Treated/Untreated (HeLa tumor xenograft; target uptake ratio between pre and post treatment in same animal): 1.9^b
- uptake ratio between tumor and muscle (T/M) (HeLa tumor xenograft; 65 min): 3.30 fold
- uptake ratio between tumor and muscle (T/M) (HeLa tumor xenograft; 182 min): 7.00 fold
- Ratio of % ID/g over muscle ± SEM ([2]; Bone): 2.4 ± 1.5
- Ratio of % ID/g over muscle ± SEM ([2]; Brain): 0.5 ± 0.2
- Ratio of % ID/g over muscle ± SEM ([2]; Heart): 4.5 ± 2.4
- Ratio of % ID/g over muscle ± SEM ([2]; Kidney): 124.2 ± 46.6
- Ratio of % ID/g over muscle ± SEM ([2]; Liver): 22.9 ± 9.7
- Ratio of % ID/g over muscle ± SEM ([2]; Lung): 4.1 ± 1.8
- Ratio of % ID/g over muscle ± SEM ([2]; Muscle): 1.0 ± 0.5
- Ratio of % ID/g over muscle ± SEM ([2]; Plasma): 4.0 ± 1.8
- Ratio of % ID/g over muscle ± SEM ([2]; Spleen): 1.7 ± 0.7
- Ratio of % ID/g over muscle ± SEM ([2]; Tumor): 5.6 ± 2.3
- Ratio of % ID/g over muscle ± SEM ([2]; Whole Blood): 5.1 ± 2.4
- crossing of the blood-brain barrier ([2]; low uptake in brain tissue, 120 minutes post injection): could not cross the blood-brain barrier
- retained 18F activity in Dox-treated cells with caspase-3 inhibitor (apoptotic HeLa cells; Dox 2 μM plus Z-VAD-fmk): 1.3 fold
- retained 18F activity in Dox-treated versus non-treated cells (apoptotic HeLa cells; Dox 2 μM, 4 h tracer incubation): 2.2 fold
- intact tracer in mouse serum [3]: 60%
- tracer cyclized by recombinant caspase-3 (caspase-3): 90%

Compound: CC(CCCCC[18F])(C(=O)O)C(=O)O [[^18F]ML-10]
- % ID/g at target site (Membrane Potential; PET imaging, cerebral stroke): 0.3 ± 0.1 % ID/g
- Treated/Untreated (Membrane Potential; stroke and non-stroke region in same animal): 2.3^f
